{"source": "patent US20070037835A1", "about": "“Pharmaceutical composition comprising a cathepsin s inhibitor and an opioid” (priority 2003, published 2007)", "key": {"[1]": {"test_system": "neuropathic rat nociceptive threshold", "assay": "Naloxone blockade of anti-hyperalgesic effect in neuropathic rats", "format": "in vivo"}, "[2]": {"test_system": "established mechanical hyperalgesia", "assay": "Chronic neuropathic pain model (Seltzer, partial ligation of the sciatic nerve), paw withdrawal threshold", "format": "in vivo, Wistar rats", "settings": "mean ± s.e.m.", "source_text": "Hyperalgesia is examined in the model of neuropathic pain induced by partial ligation of the sciatic nerve as described by Seltzer et al. (1990). Briefly, Wistar rats (120-140 g) are anaesthetised, the left sciatic nerve exposed at mid-thigh level through a small incision and ⅓ to ½ of the nerve thickness tightly ligated within a 7.0 silk suture. The wound is closed with a single muscle suture and skin clips and dusted with Aureomycin antibiotic powder. The animals are allowed to recover and used 12-15 days following surgery. Mechanical hyperalgesia is assessed by measuring paw withdrawal thresholds to an increasing pressure stimulus placed onto the dorsal surface of the paw using an analgesy-meter (Ugo-Basile, Milan) with a cut-off of 250 g. Withdrawal thresholds are measured on both the ipsilateral (ligated) and contralateral (unligated) paw prior to (predose) and then up to 6 h following drug or vehicle administration. Data are expressed as withdrawal threshold (g) and percentage reversal of hyperalgesia calculated according to the following formula: [formula]\nPotency is expressed as D50 value, i.e. the dose of the single compound or a COMBINATION OF THE INVENTION necessary to produce 50% reversal of hyperalgesia.\nPaw withdrawal thresholds are measured prior to drug treatment (predose) and then at 0.5, 1, 3 and 6 hours following concomitant administration of morphine subcutaneously and the cathepsin inhibitor of formula II orally. Each time point represents data from 6 animals per group. Vehicle is 0.5% methylcellulose, 1 ml p.o./0.9% saline s.c. Statistical analysis is performed on raw data (paw withdrawal thresholds).\nStatistical significance, *† P<0.05 by Analysis of variance followed by Dunnett's test."}}, "note": "Counter-ions that a name gives are not always drawn.", "data": [{"compound": "C=CCN1CC[C@]23c4c5ccc(O)c4O[C@H]2C(=O)CC[C@@]3(O)[C@H]1C5", "note": "[Naloxone hydrochloride]", "values": [{"measurement": "effect on neuropathic rat nociceptive threshold", "setting": "[1]; naloxone alone, 0.1 mg/kg", "value": "devoid of any effect"}, {"measurement": "effect on the anti-hyperalgesic effect induced by the compound of formula II", "setting": "[1]; neuropathic rats, naloxone 0.1 mg/kg", "value": "blocks the anti-hyperalgesic effect"}]}, {"compound": "CC(C)(C)CCn1c(Cc2ccc(Cl)cc2)cc2cnc(C#N)nc21", "note": "[Inhibitor]", "values": [{"measurement": "% Reversal of Predose Hyperalgesia", "setting": "[2]; Inhibitor 10 mg/kg p.o., 0.5 h post-dose", "value": "30.3 ± 5.8", "unit": "%"}, {"measurement": "% Reversal of Predose Hyperalgesia", "setting": "[2]; Inhibitor 10 mg/kg p.o., 1 h post-dose", "value": "22.8 ± 4.6", "unit": "%"}, {"measurement": "% Reversal of Predose Hyperalgesia", "setting": "[2]; Inhibitor 30 mg/kg, 0.5 h post-dose", "value": "46.7 ± 11.4", "unit": "%"}, {"measurement": "% Reversal of Predose Hyperalgesia", "setting": "[2]; Inhibitor 30 mg/kg, 1 h post-dose", "value": "54.7 ± 7.1", "unit": "%"}]}, {"compound": "CN1CC[C@]23c4c5ccc(O)c4O[C@H]2[C@@H](O)C=C[C@H]3[C@H]1C5", "note": "[Morphine, morphine]", "values": [{"measurement": "% Reversal of Predose Hyperalgesia", "setting": "[2]; Morphine 1 mg/kg s.c., 0.5 h post-dose", "value": "4.4 ± 2.8", "unit": "%"}, {"measurement": "% Reversal of Predose Hyperalgesia", "setting": "[2]; Morphine 1 mg/kg s.c., 1 h post-dose", "value": "6.5 ± 2.9", "unit": "%"}]}]}
